Experiments:
[1] = target: Matrix protein 2 (Influenza A virus (A/Udorn/307/1972(H3N2)), UniProt P0DOF8, V27A)
Influenza A virus = conditions: mdck

Row | Structure (SMILES) | IC50 [1] | EC50 (Influenza A virus)
1 | C1CCC2(CC1)CCNCC2 | > 200 µM | 
2 | NC1CCC2(CC1)C1CC3CC(C1)CC2C3 (stereo unspecified) |  | 1.8 µM
3 | NC1CCCC2(CCCCCC2)CC1 (stereo unspecified) | 11.3 µM | 
4 | N=C(N)NC1CCC2(CC1)C1CC3CC(C1)CC2C3 (stereo unspecified) | 0.5 µM | > 30 µM
5 | NCC1CCC2(CCCCC2)CC1 | 31.1 µM | 
6 | CC(N)C1CCC2(CCCCC2)CC1 (stereo unspecified) | 25.2 µM | 
7 | NC1CSC2(SC1)C1CC3CC(C1)CC2C3 (stereo unspecified) | 0.4 µM | 1 µM
8 | NC1CCCC2(CCCCC2)CC1 (stereo unspecified) | 68.1 µM | 
9 | NC1CCC2(CCCCCC2)CC1 | 28.1 µM | 

Source: ChEMBL document CHEMBL5512617, “Tackling Influenza A virus by M2 ion channel blockers: Latest progress and limitations” (Eur J Med Chem, 2024)
